Data set [1] is described as follows: Physical stability of peptide analogues (Thioflavin T fibrillation). It is filed as physicochemical. To be noted: maximum ThT signal normalized between hAMY maximum and buffer background; 40° C., shaking, four days; pH 7 per table title. The gist of the method: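 Maximum ThT emission at 480 nm, after LOESS smoothing, is given as percent of the span from buffer background to hAMY. Conditions: 50 mM buffer at pH 4 or 7, 4 μM dye, 40 °C, repeated shaking, readings every 10 min for four days.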

For data set [2], the target named is T1, hAMY3 receptor (Homo sapiens, UniProt O60896+P30988).
T1 sequence (P30988 25-474): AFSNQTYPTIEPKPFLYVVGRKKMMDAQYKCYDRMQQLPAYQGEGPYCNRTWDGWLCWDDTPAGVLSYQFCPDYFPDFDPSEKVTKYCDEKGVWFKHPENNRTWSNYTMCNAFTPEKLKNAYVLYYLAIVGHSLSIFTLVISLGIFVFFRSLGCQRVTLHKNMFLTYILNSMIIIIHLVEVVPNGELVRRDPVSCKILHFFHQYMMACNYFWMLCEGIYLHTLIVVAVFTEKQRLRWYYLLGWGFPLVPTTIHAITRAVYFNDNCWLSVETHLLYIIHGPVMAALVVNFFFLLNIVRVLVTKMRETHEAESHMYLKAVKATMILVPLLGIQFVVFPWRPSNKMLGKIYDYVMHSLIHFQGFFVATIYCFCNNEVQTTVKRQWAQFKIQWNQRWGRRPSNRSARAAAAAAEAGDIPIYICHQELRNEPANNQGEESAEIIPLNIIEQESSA
T1 sequence (O60896 24-148 partner): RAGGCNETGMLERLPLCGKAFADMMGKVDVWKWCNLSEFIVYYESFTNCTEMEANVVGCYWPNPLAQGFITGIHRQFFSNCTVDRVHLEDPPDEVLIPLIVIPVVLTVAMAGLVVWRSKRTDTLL
The data set can be described thus: cAMP assay for in vitro receptor activation, hAMY3-R. The settings on record: cAMP assay, hAMY3 receptor; read-out: hAMY3R EC50. In kind it is cell-based. The gist of the method: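 Monoclonal cell line stably overexpressing human AMY3 receptor, 2000 cells/well in DPBS with 0.05% casein and 0.5 mM IBMX. Stimulated 30 min at room temperature with graded compound doses, human amylin as positive control. cAMP accumulation read by TR-FRET after one hour.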
A general note: Changes in cAMP serve as a functional read-out for many G protein-coupled receptors.

Bridge positions count the residues as written; N and C are the ends. Square brackets hold non-standard residues; d marks the D form. Peptide text beside a SMILES is read from it. Hyp = O=C(O)[C@@H]1C[C@@H](O)CN1

As usually defined, the EC50 is the concentration that produces a half-maximal response. For `CC[C@H](C)[C@H](NC(=O)[C@H](CCC(N)=O)NC(=O)[C@H](Cc1c[nH]cn1)NC(=O)[C@H](C)NC(=O)[C@H](CC(C)C)NC(=O)[C@H](Cc1c[nH]c2ccccc12)NC(=O)[C@H](CCC(N)=O)NC(=O)[C@@H](NC(=O)[C@@H](NC(=O)[C@@H]1CSSC[C@H](NC(=O)CN)C(=O)N[C@@H](CCCNC(=N)N)C(=O)N[C@@H](Cc2ccccc2)C(=O)NCC(=O)N[C@@H]([C@@H](C)O)C(=O)N1)[C@@H](C)O)C(C)C)C(=O)N[C@@H](Cc1ccc(O)cc1)C(=O)N[C@@H](CCC(N)=O)C(=O)N[C@@H](Cc1ccccc1)C(=O)N[C@H](C(=O)N[C@@H](CC(=O)O)C(=O)N[C@@H](CCCCN)C(=O)N[C@@H](CC(=O)O)C(=O)N[C@@H](CCCCN)C(=O)N[C@@H](CC(=O)O)C(=O)N[C@@H](CC(N)=O)C(=O)N[C@H](C(=O)N[C@@H](C)C(=O)N1CCC[C@H]1C(=O)N[C@@H](CCCNC(=N)N)C(=O)N[C@@H](CO)C(=O)N[C@@H](CC(N)=O)C(=O)N[C@H](C(=O)N[C@@H](CO)C(=O)N1CCC[C@H]1C(=O)N[C@@H](CCC(N)=O)C(=O)NCC(=O)N[C@@H](Cc1ccc(O)cc1)C(N)=O)C(C)C)C(C)C)[C@@H](C)O` [compound 345] (H-GCRFGTCTVQWLAHQIYQFTDKDKDNVAPRSNVSPQGY-NH2; disulfide 2-7; N-terminus assumed), the “Max ThT signal (%)” value in data set [1] came to 3.250%. Moreover, in data set [2], the 50% effective concentration (EC50) was determined as 0.051 nM.
In the case of `CC[C@H](C)[C@H](NC(=O)[C@H](CCC(N)=O)NC(=O)[C@H](Cc1c[nH]cn1)NC(=O)[C@H](C)NC(=O)[C@H](CC(C)C)NC(=O)[C@H](CCCNC(=N)N)NC(=O)[C@H](CCC(N)=O)NC(=O)[C@@H](NC(=O)[C@@H](NC(=O)[C@@H]1CSSC[C@H](NC(=O)CN)C(=O)N[C@@H](CCCNC(=N)N)C(=O)N[C@@H](Cc2ccccc2)C(=O)NCC(=O)N[C@@H]([C@@H](C)O)C(=O)N1)[C@@H](C)O)C(C)C)C(=O)N[C@@H](Cc1ccc(O)cc1)C(=O)N[C@@H](CCC(N)=O)C(=O)N[C@@H](Cc1ccccc1)C(=O)N[C@H](C(=O)N[C@@H](CC(=O)O)C(=O)N[C@@H](CCCCN)C(=O)N[C@@H](CC(=O)O)C(=O)N[C@@H](CCCCN)C(=O)N[C@@H](CC(=O)O)C(=O)N[C@@H](CC(N)=O)C(=O)N[C@H](C(=O)N[C@@H](C)C(=O)N1CCC[C@H]1C(=O)N[C@@H](CCCNC(=N)N)C(=O)N[C@@H](CO)C(=O)N[C@@H](CC(N)=O)C(=O)N[C@H](C(=O)N[C@@H](CO)C(=O)N1CCC[C@H]1C(=O)N[C@@H](CCC(N)=O)C(=O)NCC(=O)N[C@@H](Cc1ccc(O)cc1)C(N)=O)C(C)C)C(C)C)[C@@H](C)O` [compound 131] (H-GCRFGTCTVQRLAHQIYQFTDKDKDNVAPRSNVSPQGY-NH2; disulfide 2-7), the “Max ThT signal (%)” value in data set [1] is 6.800%. Further, the EC50 in data set [2] is 0.031 nM.
Taken in the same sequence, the figures for `CC[C@H](C)[C@H](NC(=O)[C@H](CCC(N)=O)NC(=O)[C@H](Cc1c[nH]cn1)NC(=O)[C@H](C)NC(=O)[C@H](CC(C)C)NC(=O)[C@H](CCCNC(=N)N)NC(=O)[C@H](CCC(N)=O)NC(=O)[C@@H](NC(=O)[C@@H](NC(=O)[C@@H]1CSSC[C@H](NC(=O)CN)C(=O)N[C@@H](CCCNC(=N)N)C(=O)N[C@@H](Cc2ccccc2)C(=O)NCC(=O)N[C@@H]([C@@H](C)O)C(=O)N1)[C@@H](C)O)C(C)C)C(=O)N[C@@H](Cc1ccc(O)cc1)C(=O)N[C@@H](CCC(N)=O)C(=O)N[C@@H](Cc1ccccc1)C(=O)N[C@H](C(=O)N[C@@H](CC(=O)O)C(=O)N[C@@H](CCCCN)C(=O)N[C@@H](CC(=O)O)C(=O)N[C@@H](CCCCN)C(=O)N[C@@H](CC(=O)O)C(=O)N[C@@H](CC(N)=O)C(=O)N[C@H](C(=O)N[C@@H](C)C(=O)N1CCC[C@H]1C(=O)N[C@@H](CCCNC(=N)N)C(=O)N[C@@H](CO)C(=O)N[C@@H](CC(N)=O)C(=O)N[C@H](C(=O)N[C@@H](CO)C(=O)N1CCC[C@H]1C(=O)N[C@@H](CCC(N)=O)C(=O)NCC(=O)N[C@@H](Cc1ccc(O)cc1)C(N)=O)[C@@H](C)CC)C(C)C)[C@@H](C)O` [compound 182] (H-GCRFGTCTVQRLAHQIYQFTDKDKDNVAPRSNISPQGY-NH2; disulfide 2-7; N-terminus assumed) were 15.600% and 0.085 nM.
For the molecule `CC[C@H](C)[C@H](NC(=O)[C@H](CCC(N)=O)NC(=O)[C@H](Cc1c[nH]cn1)NC(=O)[C@H](C)NC(=O)[C@H](CC(C)C)NC(=O)[C@H](Cc1c[nH]c2ccccc12)NC(=O)[C@H](CCC(N)=O)NC(=O)[C@@H](NC(=O)[C@@H](NC(=O)[C@@H]1CSSC[C@H](NC(=O)CN)C(=O)N[C@@H](CCCNC(=N)N)C(=O)N[C@@H](Cc2ccccc2)C(=O)NCC(=O)N[C@@H]([C@@H](C)O)C(=O)N1)[C@@H](C)O)C(C)C)C(=O)N[C@@H](Cc1ccc(O)cc1)C(=O)N[C@@H](CCC(N)=O)C(=O)N[C@@H](Cc1ccccc1)C(=O)N[C@H](C(=O)N[C@@H](CC(=O)O)C(=O)N[C@@H](CCCCN)C(=O)N[C@@H](CC(=O)O)C(=O)N[C@@H](CCCCN)C(=O)N[C@@H](CC(=O)O)C(=O)N[C@@H](CC(N)=O)C(=O)N[C@H](C(=O)N[C@@H](C)C(=O)N1CCC[C@H]1C(=O)N[C@@H](CCCNC(=N)N)C(=O)N[C@@H](CO)C(=O)N[C@@H](CCCCN)C(=O)N[C@H](C(=O)NCC(=O)N1CCC[C@H]1C(=O)N[C@@H](CCC(N)=O)C(=O)NCC(=O)N1C[C@H](O)C[C@H]1C(N)=O)C(C)C)C(C)C)[C@@H](C)O` [compound 353] (H-GCRFGTCTVQWLAHQIYQFTDKDKDNVAPRSKVGPQG[Hyp]-NH2; disulfide 2-7; N-terminus assumed), in data set [1], the “Max ThT signal (%)” value came out at 30.300%. Also, the EC50 in data set [2] came out at 0.027 nM.
As to `CC[C@H](C)[C@H](NC(=O)[C@H](CCC(N)=O)NC(=O)[C@H](Cc1c[nH]cn1)NC(=O)[C@H](C)NC(=O)[C@H](CC(C)C)NC(=O)[C@H](CCCNC(=N)N)NC(=O)[C@H](CCC(N)=O)NC(=O)[C@@H](NC(=O)[C@@H](NC(=O)[C@@H]1CSSC[C@H](NC(=O)CN)C(=O)N[C@@H](CCCNC(=N)N)C(=O)N[C@@H](Cc2ccccc2)C(=O)NCC(=O)N[C@@H]([C@@H](C)O)C(=O)N1)[C@@H](C)O)C(C)C)C(=O)N[C@@H](Cc1ccc(O)cc1)C(=O)N[C@@H](CCC(N)=O)C(=O)N[C@@H](Cc1ccccc1)C(=O)N[C@H](C(=O)N[C@@H](CC(=O)O)C(=O)N[C@@H](CCCCN)C(=O)N[C@@H](CC(=O)O)C(=O)N[C@@H](CCCCN)C(=O)N[C@@H](CC(=O)O)C(=O)N[C@@H](CC(N)=O)C(=O)N[C@H](C(=O)N[C@@H](C)C(=O)N1CCC[C@H]1C(=O)N[C@@H](CCCNC(=N)N)C(=O)N[C@@H](CO)C(=O)N[C@@H](CC(N)=O)C(=O)N[C@H](C(=O)N[C@@H](CO)C(=O)N1CCC[C@H]1C(=O)N[C@@H](CCC(N)=O)C(=O)NCC(=O)N1C[C@H](O)C[C@H]1C(N)=O)[C@@H](C)CC)C(C)C)[C@@H](C)O` [compound 158] (H-GCRFGTCTVQRLAHQIYQFTDKDKDNVAPRSNISPQG[Hyp]-NH2; disulfide 2-7; N-terminus assumed), the “Max ThT signal (%)” value in data set [1] was found to be 6.300%. The 50% effective concentration (EC50) in data set [2] worked out at 0.048 nM.
Regarding `CC[C@H](C)[C@H](NC(=O)[C@H](CC(N)=O)NC(=O)[C@@H](NC(=O)[C@H](CCCNC(=N)N)NC(=O)[C@@H]1CCCN1C(=O)[C@H](C)NC(=O)[C@@H](NC(=O)[C@H](CC(N)=O)NC(=O)[C@H](CC(=O)O)NC(=O)[C@H](CCCCN)NC(=O)[C@H](CC(=O)O)NC(=O)[C@H](CCCCN)NC(=O)[C@H](CC(=O)O)NC(=O)[C@@H](NC(=O)[C@H](Cc1ccccc1)NC(=O)[C@H](CCC(N)=O)NC(=O)[C@H](Cc1ccc(O)cc1)NC(=O)[C@@H](NC(=O)[C@H](CCC(N)=O)NC(=O)[C@H](Cc1c[nH]cn1)NC(=O)[C@H](C)NC(=O)[C@H](CC(C)C)NC(=O)[C@H](CCCNC(=N)N)NC(=O)[C@H](CCC(N)=O)NC(=O)[C@@H](NC(=O)[C@@H](NC(=O)[C@@H]1CSSC[C@H](NC(=O)CN)C(=O)N[C@@H](CCCNC(=N)N)C(=O)N[C@@H](Cc2ccccc2)C(=O)NCC(=O)N[C@@H]([C@@H](C)O)C(=O)N1)[C@@H](C)O)C(C)C)[C@@H](C)CC)[C@@H](C)O)C(C)C)[C@@H](C)O)C(=O)NCC(=O)N1CCC[C@H]1C(=O)N[C@@H](CC(N)=O)C(=O)NCC(=O)N1C[C@H](O)C[C@H]1C(N)=O` [compound 81] (H-GCRFGTCTVQRLAHQIYQFTDKDKDNVAPRTNIGPNG[Hyp]-NH2; disulfide 2-7; N-terminus assumed), in data set [1], the “Max ThT signal (%)” value is given as 4.000%. Also, the half-maximal effective concentration (EC50) in data set [2] stood at 0.015 nM.

Source of the values: patent US12139520B2 (priority 2020, dated 2024).
